# Legend:
# [1] = ref Table S4; cited from earlier work
# [2] = system: male Swiss Webster mice; experiment: Lethality assay in mice; conditions: for Time of most overdose events after drug exposure: bolus iv injection
# [3] = human liver microsomes, 2 h incubation; cited from earlier work
# [4] = system: mice; set-up: unit not given beside the values; conditions: literature value for LD50 in mice, ref not given; cited from earlier work
# [5] = Lethality assay in mice; conditions: male, Swiss Webster, mouse, in vivo, iv
# [6] = post-mortem toxicology reports; cited from earlier work
# [7] = system: murine μ-OR; conditions: cited from earlier work
Compound,Solubility in aqueous solution [1],Time of most overdose events after drug exposure [2],"Observations after oral dosing ([2]; oral, no deaths observed)",Conversion to mitragynine [3],"LD50 iv, literature value [4]",LD50 at 24 h [5],Reported urine concentrations in overdose deaths involving Kratom [6],"LD50 oral ([2]; oral, doses given in mg/kg)",Mode of binding at the murine μ-OR [7]
"CC[C@@H]1CN2CC[C@@]3(O)C(=Nc4cccc(OC)c43)[C@@H]2C[C@@H]1/C(=C\OC)C(=O)OC [7-hydroxymitragynine, 7-Hydroxymitragynine]",low solubility,≤ 10 min,severe respiratory depression and seizures were observed,45%,–,–,–,–,–
CC(=O)Oc1ccc2c3c1O[C@H]1[C@@H](OC(C)=O)C=C[C@H]4[C@@H](C2)N(C)CC[C@@]341 [heroin],–,–,–,–,21.8,23.7 mg/kg,–,–,–
mitragynine,low solubility,≤ 10 min,–,–,–,–,0.167 to 1.2 µg/mL,547.7,competitive antagonist
